# Experimental data taken from patent US20170101385A1, “NOVEL ISOXAZOLES, A PROCESS FOR THEIR PREPARATION AND USES THEREOF” (Sanko Tekstil Isletmeleri San. Ve Tic. A.S., priority 2015, published 2017).
# System: Staphylococcus aureus ATCC 6538
# Assay: Antibacterial test on treated fabric (AATCC 147:2011; washing standard BS EN ISO 6330 5A)
# Assay type: cell-based
# Set-up: key to Bacteria Growth: (—): no bacterial colonies directly under the treated sample in the contact area were observed
# Conditions: 37° C. ± 2° C., 18-24 hrs, no washing; for Bacteria Growth: directly under the treated fabric sample in the contact area; for Inhibition Zone (width of clear zone of inhibition): woven fabric treated with the compound, sample 25 × 50 mm
# Protocol: In order to determine if the antimicrobic activity of the textile fabrics, Washing Standart: BS EN ISO 6330 5A and Antibacterial Test Standart: AATCC 147:2011 were followed. Details of the method are given in the experimental section of the description.
# • Antibacterial tests were carried out using Washing Standart: BS EN ISO 6330 5A, and Antibacterial Test Standart: AATCC 147:2011.
SMILES,Bacteria Growth,Inhibition Zone (width of clear zone of inhibition)
"Cc1cc(/N=C/c2cccc3ccccc23)on1 [Example 1, 3-methyl-N-(1-naphthalenylmethylen)-5-isoxazolamine]",(—),0 mm
"Cc1cc(/N=C/c2cc3ccccc3c3ccccc23)on1 [Example 3, 3-methyl-N-(9-phenanthrenylmethylen)-5-isoxazolamine]",(—),0 mm
"Cc1cc(/N=C/c2ccc3ccccc3c2)on1 [Example 2, 3-methyl-N-(2-naphthalenylmethylen)-5-isoxazolamine]",(—),0 mm
